Consider eight molecules from patent US11312737B2, “Amide-linked EP4 agonist-bisphosphonate compounds and uses thereof” (SIMON FRASER UNIVERSITY, priority 2015, dated 2022).

One data set concerns leukocytes. As to the kind of experiment: Neutrophil function effects. It is filed as cell-based. As to conditions: for activity in leukocytes (neutrophil function) / neutrophil speed: FIG. 13.
The nature of data set [1]: In vivo uptake studies of tritium labelled C3, C4 and C5-conjugates 6 hours after dosing. The conditions noted are these: rat; for % of the initial dose found in muscle: 6 hours after dosing; for uptake into long bones, % of initial dose: 6 hours after injection, tritium label. As for the experimental part:
The three conjugate compounds, C3, C4 and C5, were radiolabelled with tritium in the EP4 agonist moiety and used to monitor in vivo distribution in rat organs and uptake into bone after intravenous dosing.
The radioactivity in organs (heart, kidney, brain, muscle, one piece of muscle attached to bone, spleen and liver) was counted 6 hours after dosing (FIG. 3). For the C3-conjugate compound, calculations were done based on results obtained from two rats. Most of the labelled conjugate compounds were taken up into liver (65-74%), and about 1% and 0.2% were found in spleen and kidneys for all labelled conjugate compounds, after 6 hours. About 0.2% of the initial dose of the C4 and C5-conjugate compounds, and 2% of the C3-conjugate compound, was found in muscle. All other organs contained 0.05% of the initial dose of the conjugate compounds.
Finally, the uptake of the tritiated C3, C4 and C5-conjugate compounds into bones was counted (FIG. 4). All three conjugate compounds were well taken up into bone.

The nature of data set [2]: In vivo uptake and release studies of tritium labelled C3-conjugate over 28 days. As to conditions: rat. As for the experimental part: In vivo uptake and release studies using tritium labelled C3-conjugate compound were performed. After intravenous dosing of 1-5 μCi/5 mg/kg of [^3H]-C3 to 15 rats, groups of 3 rats were euthanized at each time point a at t=6 h, 24 h, 7 d, 14 d, 28 d). The radioactivity in blood samples, spleen, liver and long bones was counted for each group of rats. […] After one week, 53% of label was eliminated and only traces were detected after 28 days (FIG. 6). In spleen, the counted radioactivity decreased from 1% 6 hours after dosing to 0.4% at t=28 days (FIG. 6).

A short description of data set [3]: Stability of conjugate compounds in rat plasma. The conditions noted are these: fresh rat plasma, 37° C., 100 μg/mL.
Experimental: The amide-linked conjugate compounds were examined for their stability in rat plasma. […] The mixture was then incubated at 37° C. for 24 h. Aliquots of 10 μL were removed at 0, 2, 4, 6, 7 and 24 h, mixed to 10 mg of bone powder and 10-fold diluted with water in a 0.6 mL Eppendorf tube. A gentle stirring was applied for 20 min. 50 μL were then used to count the activity.

Regarding `NCCCC(O)(P(=O)(O)O)P(=O)(O)O` [alendronate, 4-amino-1-hydroxybutylidene-1,1-bisphosphonic acid monosodium trihydrate, reference compound], the “activity in leukocytes (neutrophil function)” value (“activity in leukocytes” below) in the data set on leukocytes is on record as “active”.

Regarding `O=C(O)Cc1ccc(C(=O)NCCC(O)(P(=O)(O)O)P(=O)(O)O)cc1` [fragment 5, Sodium2-(4-((3-hydroxy-3,3-bis(hydroxyoxidophosphoryl)propyl)carbamoyl)phenyl)acetate], in the data set on leukocytes, the “activity in leukocytes” value was “neither fragment 4 nor 5 exhibited significant activity”.

`NCCC(O)(P(=O)(O)O)P(=O)(O)O` [pamidronate, 3-amino-1-hydroxypropylidene-1,1-bisphosphonic acid, reference compound]: in the data set on leukocytes, the “activity in leukocytes” value is recorded as “active”.

For `O=C(O)Cc1ccc(C(=O)NCCCC(O)(P(=O)(O)O)P(=O)(O)O)cc1` [fragment 4, Sodium 2-(4-((4-hydroxy-4,4-bis(hydroxyoxidophosphoryl)butyl)carbamoyl)phenyl)acetate], in the data set on leukocytes, the “biological activity compared to alendronate alone” value is “biologically inactive” and the “activity in leukocytes” value is given as “neither fragment 4 nor 5 exhibited significant activity”.

Consider `CCOC(=O)CCCCCCN1C(=O)CC[C@@H]1/C=C/[C@@H](OC(=O)Cc1ccc(C(=O)NCCCCCC(O)(P(=O)(O)O)P(=O)(O)O)cc1)C(F)(F)c1ccccc1` [C5-conjugate, Sodium (6-(4-(2-(((R,E)-4-((R)-1-(7-ethoxy-7-oxoheptyl)-5-oxopyrrolidin-2-yl)-1,1-difluoro-1-phenyibut-3-en-2-yl)oxy)-2-oxoethyl)benzamido)-1-hydroxyhexane-1,1-diyl)bis(hydrogen phosphonate)], for which, in data set [1], the “% of the initial dose found in muscle” value is given as “About 0.2%” and the “uptake into long bones, % of initial dose” value is “about 10%”.

Take `CCOC(=O)CCCCCCN1C(=O)CC[C@@H]1/C=C/[C@@H](O)C(F)(F)c1ccccc1` [EP4 agonist, ethyl 7-((R)-2-((R,E)-4,4-difluoro-3-hydroxy-4-phenylbut-1-en-1-yl)-5-oxopyrrolidin-1-yl)heptanoate]: the neutrophil speed result in the data set with leukocytes was “low neutrophil speed”.

Regarding `CCOC(=O)CCCCCCN1C(=O)CC[C@@H]1/C=C/[C@@H](OC(=O)Cc1ccc(C(=O)NCCCC(O)(P(=O)(O)O)P(=O)(O)O)cc1)C(F)(F)c1ccccc1` [C3-conjugate, Sodium (4-(4-(2-(((R,E)-4-((R)-1-(7-ethoxy-7-oxoheptyl)-5-oxopyrrolidin-2-yl)-1,1-difluoro-1-phenylbut-3-en-2-yl)oxy)-2-oxoethyl)benzamido)-1-hydroxybutane-1,1-diyl)bis(hydrogen phosphonate)], the “counted radioactivity in spleen” value in data set [2] (6 hours after dosing) was determined as 1%; in data set [2] (t=28 days) it was 0.4%. The “tritiated conjugate found in liver” value in data set [2] (6 hours after injection) is 69%. The “tritiated conjugate in liver” value in data set [2] (after 24 hours) is “remained in a high proportion”; in data set [2] (after 28 days), “only traces”. Further, the “conjugate remained attached to bone” value in data set [2] (after 7 days, tritium label) is recorded as 5.5%. Besides, in data set [2] (after one week), the “label eliminated from liver” value stood at 53%. Moreover, the “half-life (tritium label on bone)” value in data set [2] (calculated from bone data over 28 days) is listed as “about 8 days”. Further, the “% of the initial dose observed in bone” value in data set [2] (end of the study (28 days), tritium label) is given as 1.4%. Besides, the “activity detected in the bloodstream” value in data set [2] (over 28 days, tritium label) was “Very low activity”. Besides, in data set [2] (tritium label), the clearance from plasma entry was “rapid clearance”. The “hydrolysis after 24 h-incubation” value in data set [3] is reported as “About 10%”. The “% of the initial dose found in muscle” value in data set [1] is reported as approximately 2%. Also, the neutrophil speed result in the data set with leukocytes is listed as “low neutrophil speed”.

As for `CCOC(=O)CCCCCCN1C(=O)CC[C@@H]1/C=C/[C@@H](OC(=O)Cc1ccc(C(=O)NCCC(O)(P(=O)(O)O)P(=O)(O)O)cc1)C(F)(F)c1ccccc1` [C4-conjugate, Sodium (3-(4-(2-(((R,E)-4-((R)-1-(7-ethoxy-7-oxoheptyl)-5-oxopyrrolidin-2-yl)-1,1-difluoro-1-phenylbut-3-en-2-yl)oxy)-2-oxoethypbenzamido)-1-hydroxypropane-1,1-diyl)bis(hydrogen phosphonate)], in data set [1], the “% of the initial dose found in muscle” value is recorded as “About 0.2%” and the “uptake into long bones, % of initial dose” value was “about 10%”. For the same molecule, in the data set with leukocytes, the “activity in leukocytes” value is on record as “active”.
